Source: patent US20240361338A1, “DIAGNOSIS AND TREATMENT OF ECTOPIC ENDOMETRIOSIS” (FERRING B.V., priority 2021, published 2024)

What was measured:
ectopic E-MSCs [1] = assay: Endothelial differentiation (CD31) of ectopic E-MSCs in co-culture with HUVECs; assay type: cell-based, human; conditions: for endothelial differentiation (CD31 expression) of E-MSCs: 1 μM, 24 h treatment, 48 h co-culture with HUVECs
Procedure: FIG. 5: Quinagolide effect on EMSCs endothelial differentiation. A. FACS gating-strategy for the analysis of CD31^+ EMSCs after direct 48 h co-culture with HUVECs. EMSCs are gated as GFP negative population, and CD31 expression is evaluated on the described gated EMSCs after 48 h co-culture with HUVECs as percentage of CD31 APC positive events. B, C and D: Representative flow cytometry micrographs and quantification, expressed as percentage of variation respect to control co-culture, of the effect of 24 h treatment of EMSCs with 25 μM cabergoline, 1 μM sorafenib, 1 μM cabozantinib (B), 100 nM quinagolide (C) and the combination of 5 μM spiperone and 100 nM quinagolide (D) on EMSCs CD31 expression after 48 h of co-culture with HUVECs. Data are represented as mean±SD of at least three independent experiments, performed on different ectopic EMSC lines, and normalized to untreated co-culture. One-way ANova was performed: *=p<0.05 and ***=p<0.001 vs control.
(BSA)-Phosphate Buffered Saline (PBS) (Sigma). For each staining, 100,000 cells were incubated for 20 minutes at 4° C. with FITC, APC or PE-conjugated antibodies against: CD29, CD44, CD73, CD90 (BD Bioscences, Franklin Lakes, NJ, USA); CD31, CD34, CD105, CD140b, CD146, TEK receptor tyrosine kinase (Tie2), Sushi domain-containing protein 2 (SUSD2) (Miltenyi Biotech, Bergisch Gladbach, Germany); CD45 (AbD Serotec, Raleigh, NC, USA), or epithelial cell adhesion molecule (EPCAM) (BioLegend, San Diego, CA, USA). Labelled cells were washed by centrifugation and final pellet was resuspended in 200 μl of 0.1% BSA-PBS before cytofluorimetric analysis. Isotype (Miltenyi Biotec) was used as negative control.
Quinagolide powder (provided by Ferring Pharmaceuticals) was stored at 4° C. and resuspended in dimethylsulphoxide (DMSO) to a stock solution of 1 mM immediately before use. Spiperone powder (Sigma-Aldrich) was resuspended in water to a stock concentration of 1 mM and stored at −20° C. Cabergoline powder (Sigma-Aldrich) was dissolved in DMSO to a stock concentration of 25 mM and stored at −20° C. Sorafenib and cabozantinib (Sigma-Aldrich) were resuspended in DMSO to a final concentration of 10 mM and according to the manufacturer's instructions, and stored at −20° C. and −80° C., respectively. Quinagolide, spiperone and cabergoline were diluted 1:100 (final concentration 100 nM), 1:1000 (final concentration 5 μM) and 1:1000 (final concentration 25 μM) respectively. Quinagolide, cabergoline, sorafenib and cabozantinib and were administered for 24 hours during co-culture experiments, while spiperone was added to culture medium 1 h before quinagolide treatment. For invasion assays, E-MSCs were treated with spiperone 1 h before the cell detachment and quinagolide was added only when cells were plated on Matrigel. […]

ectopic E-MSCs [2] = conditions: 25 μM, previously described (Canosa et al., 2017), positive control; cited from earlier work
ectopic E-MSCs [3] = assay: Matrigel transwell invasion assay, ectopic E-MSCs; assay type: cell-based, human; conditions: 5 μM spiperone pre-treatment 1 h, then 100 nM quinagolide, ectopic EMSCs
Procedure: FIG. 4: Quinagolide effect on EMSCs invasion. A and B: Representative micrographs (A) and quantification (B) of quinagolide effect (100 nM) on eutopic and ectopic (both ovarian and peritoneal) EMSCs invasion (original magnification: ×100). C: Concentration response effect of quinagolide treated ectopic EMSCs invasion. D and E: Quantification (D) and representative micrographs (E) (original magnification: ×100) of invasion assays performed on ectopic EMSCs (both ovarian and peritoneal), treated with 100 nM quinagolide (Q100 nM), 5 μM spiperone(S) or a combination of quinagolide and spiperone (S+Q100 nM). All invasion data are represented as mean±SD of at least three independent experiments, performed on different EMSC lines, and normalized to untreated cells (CTL). One-way ANova was performed: *=p<0.05 and **=p<0.001 vs CTL. Quinagolide powder (provided by Ferring Pharmaceuticals) was stored at 4° C. and resuspended in dimethylsulphoxide (DMSO) to a stock solution of 1 mM immediately before use. Spiperone powder (Sigma-Aldrich) was resuspended in water to a stock concentration of 1 mM and stored at −20° C. Cabergoline powder (Sigma-Aldrich) was dissolved in DMSO to a stock concentration of 25 mM and stored at −20° C. […] Quinagolide, cabergoline, sorafenib and cabozantinib and were administered for 24 hours during co-culture experiments, while spiperone was added to culture medium 1 h before quinagolide treatment. […] E-MSCs were seeded in triplicate in Matrigel-precoated (100 μg Matrigel/transwell) 8-um pore transwells at a concentration of 50,000 cells per well in 200 μl of RPMI 2% FCS with/without quinagolide at the indicated concentration. To test the D2 antagonist effect, E-MSCs were pre-treated with spiperone (5 μM) for 1 h at 37° C. before cell detachment. After 48 hours, invaded E-MSCs on the bottom side of the transwell were fixed with methanol and stained with crystal violet. At least five pictures per transwell were acquired (original magnification: 100×), and the percentage of transwell area covered by invaded EMSCs was quantitatively measured by ImageJ software.

CNC(=O)c1cc(Oc2ccc(NC(=O)Nc3ccc(Cl)c(C(F)(F)F)c3)cc2)ccn1 [Sorafenib]
endothelial differentiation (CD31 expression) of E-MSCs (ectopic E-MSCs [1]): no effect

C=CCN1C[C@H](C(=O)N(CCCN(C)C)C(=O)NCC)C[C@@H]2c3cccc4[nH]cc(c34)C[C@H]21 [cabergoline]
E-MSC's angiogenic potential (ectopic E-MSCs [2]): decrease

COc1cc2nccc(Oc3ccc(NC(=O)C4(C(=O)Nc5ccc(F)cc5)CC4)cc3)c2cc1OC [cabozantinib]
endothelial differentiation (CD31 expression) of E-MSCs (ectopic E-MSCs [1]): no effect

O=C(CCCN1CCC2(CC1)C(=O)NCN2c1ccccc1)c1ccc(F)cc1 [spiperone]
block of quinagolide effect on CD31 expressing E-MSCs (ectopic E-MSCs [1]; 5 μM spiperone one hour before 100 nM quinagolide, co-culture): blocked | reversal of quinagolide anti-invasive effect (ectopic E-MSCs [3]): completely reverted
